Experimental data taken from PMC8904520, “Characterization of a small-molecule inhibitor targeting NEMO/IKKβ to suppress colorectal cancer growth” (Signal Transduction and Targeted Therapy, 2022).
Values joined by “and” are separate entries in the source; they are usually repeats but may differ in a detail not shown here. Equal entries are not always repeated. Where two headings read alike, the source gives them in different places.

Tests used:
[1] = target: T1, NEMO/IKKβ complex (MBP-IKKβ (701–745) / GST-NEMO (1–196)) (Homo sapiens, UniProt Q9Y6K9); experiment: SPR competition assay of NEMO/IKKβ binding
T1 construct: made in house; host or cells: E. coli BL21(DE3)
Procedure: MBP-IKKβ was immobilized on the surface of the CM5 chip using the amine-coupling approach at a flow rate of 10 μL/min in 10 mM sodium acetate buffer (pH 5.0). The sensor surface was activated with a 7 min injection of a mixture comprising 50 mM N-hydroxysuccinimide (NHS) and 200 mM 1-ethyl-3-(3- dimethylaminopropyl) carbodiimide (EDC). Then, 33 μg/mL of IKKβ was injected to reach the target level of 500 RU and the surface was blocked with 1 M ethanolamine, pH 8.5. A series of concentrations of NEMO or SHK were injected into the flow system and analyzed for 90 or 120 s, followed by dissociation for 90 or 600 s. All binding analyses was performed in phosphate-buffered saline (PBS, pH 7.4) with 0.05% (v/v) Tween-20 at 25 °C. Prior to analysis, double reference subtractions were made to eliminate bulk refractive index changes, injection noise, and data drift. The binding affinity was determined by fitting to a Langmuir 1:1 binding model in the Biacore Evaluation software (GE Healthcare).
(§1) According to the instructions from GE, an anti-GST antibody was immobilized onto the CM5 chip surface. The sensor surface was activated with NHS and EDC, after which 15 μg/mL of anti-GST antibody was injected for 420 s and the surface was blocked with 1 M ethanolamine, pH 8.5. […] For each analyte, 50 μg/mL of GST-G was captured for 60 s and 10 mM glycine-HCl (pH 2.1) was used to regenerate the surface. MBP-B was analyzed with 120 s injection and 120 s dissociation. A series of SHK concentrations was analyzed with 90 s injection and 90 s dissociation.
For the competition assay, we tried two methods with MBP-IKKβ and GST-NEMO immobilized separately. Mixtures including series concentrations of SHK and 1 μM GST-NEMO were tested on MBP-IKKβ-immobilized surface; while other mixtures including series concentrations of SHK and 0.5 μM MBP-IKKβ were tested on GST-NEMO-captured surface. […] By recording the binding responses at 120 s, the inhibition effects of SHK were calculated to determine the IC50.

GST-NEMO (1–196) [2] = target: T2, GST-NEMO (1–196) (Homo sapiens, UniProt Q9Y6K9); experiment: SPR affinity assay on captured GST-NEMO; format: binding
T2 construct: assays using MBP-IKKβ (701–745) and GST-NEMO (1–196) peptides; made in house; host or cells: E. coli BL21(DE3)
Procedure: as §1

GST-NEMO (1–196) [3] = target: T2, GST-NEMO (1–196); experiment: MST binding assay to NEMO
LoVo xenograft tumor = LoVo xenograft tumor model; format: in vivo, athymic nude mice; settings: mice
Procedure: Female athymic nude mice aged 5 weeks were purchased from Beijing Vital River Laboratory Animal Technology Co., Ltd., and kept in the SPF Laboratory Animal Center of Dalian Medical University (Dalian, China). All animals were given free access to sterilized food and water and were habituated for 7 days before the experiments. All procedures were carried out in strict accordance with the recommendations established by the Animal Care and Ethics Committee of Dalian Medical University as well as the guidelines promulgated in the U.S. National Institutes of Health Guide for the Care and Use of Laboratory Animals. LoVo cells (LoVo/wt and LoVo/ mut, 5×10^6 in 100 μL PBS) were injected subcutaneously near the axillary fossa of each nude mouse. Two weeks later, when the formed tumor reached 3-4mm, the animals were divided randomly into three groups with 5 mice in each group. […] The tumors were measured with a caliper once every two days, and the tumor volume was calculated using the formula V = 1/2 (width^2 × length). The body weight of the animals was also recorded. After treatment with SHK for 15 days, all experimental mice were sacrificed and the tumors from each mouse were excised and their weight was measured. To determine the expression of the indicated proteins, the tumor tissues were fixed with 10% neutral formalin and embedded in paraffin. Then, 4 μm sections were stained with hematoxylin and eosin, in combination with specific antibodies (iNOS (1:100), COX-2 (1:50), IL-6 (1:100)), and TNFα (1:200)). The stained samples were examined under a Leica DM 4000B fluorescence microscope equipped with a digital camera. The other parts of the tumors were used to prepare tumor tissue lysates for western blot analysis.

NEMO/IKKβ complex = target: T3, NEMO/IKKβ complex (Homo sapiens, UniProt O14920+Q9Y6K9); experiment: Co-immunoprecipitation of NEMO/IKKβ; settings: Co-IP
T3 construct: expressed in transfected cells; host or cells: HEK293T
Procedure: The pre-cleared cell lysates were incubated with an anti-HA antibody on a rotating platform at 4 °C for 2 h, and then incubated for another 6 h with protein A/G-sepharose beads. The sepharose beads were washed three times with binding buffer, mixed with gel loading buffer and boiled for 5 min. The samples were centrifuged and the supernatants were used for western blot analysis. A specific antibody against the Flag-tag was applied for the detection of proteins.
The IKKβ and NEMO expression vectors were constructed by subcloning the full-length cDNA to pENTER-4T1 expression vector (Flag- or HA-tagged) developed by ViGene Biosciences, as described previously.[25] The 293T cells (1 × 10^6) were plated into 60 mm dishes for 1 day, and then transfected with the relevant plasmids encoding HA-IKKβ and Flag-NEMO using Lipofectamine 2000 transfection reagent (Invitrogen). After transfection, the cells were cultured for another 24 h. Subsequently, the transfected cells were trypsinized and seeded into 60 mm dishes, followed by culturing with fresh medium containing the indicated doses of SHK for 48 h, and then collected for the Co-IP assay.

T1 sequence (Q9Y6K9 1-196, one chain of several): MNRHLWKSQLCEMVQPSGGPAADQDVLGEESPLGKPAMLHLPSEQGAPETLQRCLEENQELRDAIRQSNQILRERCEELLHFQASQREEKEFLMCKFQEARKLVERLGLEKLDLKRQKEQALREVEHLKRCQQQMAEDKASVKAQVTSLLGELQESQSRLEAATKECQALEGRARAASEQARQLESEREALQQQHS
T2 sequence (Q9Y6K9 1-196): as the sequence (Q9Y6K9 1-196, one chain of several) above

With `CC(C)=CC[C@@H](O)C1=CC(=O)c2c(O)ccc(O)c2C1=O` [SHK, Shikonin] the IC50 ([1]; IC50 for impairing binding of GST-NEMO (1–196) to MBP-IKKβ (701–745), MBP-IKKβ immobilized, SHK pre-incubated with 1 μM GST-NEMO for 30 min) was 176 ± 26.4 nM, the IC50 ([1]; IC50 for inhibiting binding of MBP-IKKβ (701–745) to GST-NEMO (1–196), GST-NEMO immobilized, SHK pre-incubated with 0.5 μM MBP-IKKβ for 30 min) was 171 ± 35.6 nM and the IC50 ([1]; summary value as quoted in abstract, introduction, discussion, read-out: IC50 for destabilizing / inhibiting NEMO/IKKβ complex formation) was 174 nM and ~170 nM. For the same compound, the Kd (GST-NEMO (1–196) [2]) was 8.29 ± 2.38 µM, the Kd (GST-NEMO (1–196) [3]) was 14.2 ± 1.7 µM and the tumor volume (LoVo xenograft tumor; 2.5 and 5 mg/kg daily) was “dramatically decreased”. For the same compound, the tumor weight (LoVo xenograft tumor; 2.5 and 5 mg/kg daily) was “dramatically decreased”, the “side effects (body weight)” value (LoVo xenograft tumor; 2.5 and 5 mg/kg) was “slight side effects” and the “association of full-length HA-IKKβ and Flag-NEMO” value (NEMO/IKKβ complex; HEK293T cells) was “greatly reduced”. For the same compound, the “ability to destabilize the NEMO/IKKβ complex” value (NEMO/IKKβ complex; pre-formed complex) was “effectively reversed their association”.
